Measured values reported in patent US9301955B2, “Tritoqualine for use in the treatment of cystic fibrosis” (ORPHAN SYNERGY EUROPE-PHARMA, priority 2012, dated 2016).
Ends that are not written are not given here.

Tested on: IL8 release, epithelial cells from human gingival mucosa
Assay: IL8 release in human ex vivo gingival mucosa model stimulated by substance P
Format: cell-based
Settings: gingival mucosa stimulated by substance P 10 microM alone; measured at 24 hours; versus 29.6 ng/ml in control group (p=0.04)
Experimental: Tritoqualin effect on IL8 release on a human ex vivo model (epithelial Cells from Human gingival extraction maintained in survival) after stimulation of IL8 release
13 fragments of gingival mucous from different human donors (removal of wisdom teeth of healthy volunteers) were maintained in survival ex vivo. To this end, fragments were placed in inserts themselves willing suspended above the culture wells. The nutrient medium (antibiotics, FCS—Fetal Calf Serum) was added to the bottom of the wells, passage is carried out by slow diffusion of the two compartments by means of a porous membrane ([…]). The whole was maintained in organ culture for 24 hours in an oven to a humid atmosphere at 37° C. in the presence of 5% CO2.
Gingival inflammation was achieved by stimulation of the mucosa with a neurotransmitter, substance P (10 microM) deposited in the culture medium. Tritoqualine was added to the culture medium (systemic effect) at a concentration of 20 microM, 10 minutes after application of substance P. […]
The inflammatory cytokine, IL8, a potent chemo attractant of neutrophils, was measured in culture supernatants, 24 hours after deposition of substance P.
IL8 was measured in ng/ml by immunoassays (kits Gen Probe, France) with a spectrophotometer at 450 nm.

## Substance P: neurotransmitter, an established pro-inflammatory compound used to stimulate IL8 release (RPKPQQFFGLM-NH2; ends and bridges not checked; UniProt P20366 58-68, looked up)
  IL8 release in culture supernatant: 31.7 ng/mL
